Each molecule was assayed against TNFα (Homo sapiens, UniProt P01375) (assay: HEK-Blue hTNFα reporter assay). Settings: HEK-Blue hTNFα reporter cells, SEAP readout; read-out: IC50 Range.
Type: cell-based
Set-up: purchased R&D biosystem (R&D Systems) 210-TA-020/CF
Source text: Stimulation of HEK293 cells by TNFα leads to activation of the NF-κB pathway. The potency of compounds was examined in HEK-Blue™ hTNFα reporter cells (Invivogen, Cat #hkb-tnfdmyd). HEK-Blue™ TNFα cells were generated by stable transfection of HEK293 cell line with a SEAP reporter gene under the control of the […] minimal promoter fused to NF-κB binding sites. Stimulation of HEK-Blue™ TNFα cells with TNFα triggers the activation of the NF-κB-inducible promoter and the production of SEAP. Levels of SEAP in the supernatant can be easily determined using QUANTI-Blue™ Solution (Invivogen, cat #rep-qbs) by reading the OD at 620-655 nm.
HEK-Blue™ TNFα cells were cultured in DMEM supplemented with 10% FBS, 100p/mL penicillin, 100 μg/mL streptomycin, 100 μg/mL normocin, 1 μg/mL puromycin, and 100 μg/mL zeocin. The culture was maintained in culture incubator with 5% CO2 at 37° C. When used for assay, the cells were gently rinsed twice with pre-warmed phosphate buffered saline (PBS) and detached in presence of PBS by tapping the flask or by using a cell scraper. The cells were spun to remove PBS and resuspended in fresh, pre-warmed test medium (DMEM supplemented with 10% FBS, 100p/mL penicillin, and 100 μg/mL streptomycin). A serial dilution of work solution of tested compound was made in DMSO with 1000× of final concentration, and 40 nL of compound DMSO solution was transferred into 384-well plates (Corning 3764) by Echo, and incubated with 10 μL of recombinant hTNFα (R&D biosystem, Cat #210-TA-020/CF) for 1 h at 37° C. The compound/hTNFα mixture well received 30 μL HEK-Blue™ TNFα cell suspension at 10000 cells/well, and then incubated at 37° C. with 5% CO2 for 24 h. The final concentration of hTNFα is […]. After incubation, 5 μL of induced cell supernatant was transferred to a new 384-well plate well (Coring 3764) to mix with 45 μL of QUANTI-Blue Solution. After 1 h incubation at 37° C., the plate was read using a spectrophotometer at 620 nm.
The percentage of inhibition was calculated by the following formula: % inhibition=(positive control−Sample)/(positive control−negative control)*100 • Positive control: OD620 reading of cells with hTNFα stimulation. • Negative control: OD620 reading of cells without hTNFα stimulation. • Sample: OD620 reading of cells with compound at specific concentration and hTNFα stimulation
The % inhibition was plotted against compound concentration in logarithmic scale and the IC50 was rendered using 4-parameter nonlinear regression (GraphPad Prism).

Sequence of TNFα (P01375 77-233 limits assumed): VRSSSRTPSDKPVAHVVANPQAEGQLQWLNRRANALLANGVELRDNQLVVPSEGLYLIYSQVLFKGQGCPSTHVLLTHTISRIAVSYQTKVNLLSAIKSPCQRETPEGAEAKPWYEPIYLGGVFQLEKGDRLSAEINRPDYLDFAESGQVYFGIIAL

Compound | IC50
CN1C(=O)c2cccc(OC(F)F)c2C2CC1c1nn3ccc(-c4cnc(C5(N)CCC5)nc4)cc3c12 (centres unmarked) [Example 14, 12-(2-(1-aminocyclobutyl)pyrimidin-5-yl)-1-(difluoromethoxy)-6-methyl-6,7-dihydro-7,14-methanobenzo[c]pyrido[1′,2′:1,5]pyrazolo[4,3-f]azocin-5 (14H)-one] | < 25 nM
CN1C(=O)c2cccc(OC(F)F)c2[C@H]2C[C@@H]1c1nn3ccc(-c4cnc([C@]5(O)C[C@@](C)(O)C5)nc4)nc3c12 [Example 16] | < 25 nM
CN1C(=O)c2cccc(OC(F)F)c2[C@H]2C[C@@H]1c1nn3ccc(-c4cnc(C5(N)CC5)nc4)cc3c12 [Example 17] | < 25 nM
CN1C(=O)c2cccc(OC(F)F)c2[C@H]2C[C@@H]1c1nn3ccc(-c4cnc([C@]5(O)C[C@@](C)(C#N)C5)nc4)cc3c12 [Example 18] | < 25 nM
CN1C(=O)c2cccc(OC(F)F)c2[C@H]2C[C@@H]1c1nn3ccc(-c4cnc(C(C)(C)O)nc4)cc3c12 [Example 19] | < 25 nM
CN1C(=O)c2cccc(OC(F)F)c2[C@H]2C[C@@H]1c1nn3ccc(-c4cnc(P(C)(C)=O)c(F)c4)cc3c12 [Example 21] | < 25 nM
CN1C(=O)c2cccc(OC(F)F)c2[C@H]2C[C@@H]1c1nn3cc(F)c(-c4cnc(C5(N)CCC5)nc4)nc3c12 [Example 23] | < 25 nM
CN1C(=O)c2cccc(OC(F)F)c2[C@H]2C[C@@H]1c1nn3ccc(-c4cnc([C@]5(O)C[C@@](C)(O)C5)nc4)cc3c12 [Example 24] | < 25 nM
CN1C(=O)c2cccc(OC(F)F)c2[C@H]2C[C@@H]1c1nn3cc(F)c(-c4ccc(P(C)(C)=O)nc4)nc3c12 [Example 25] | < 25 nM
CN1C(=O)c2cccc(OC(F)F)c2[C@H]2C[C@@H]1c1nn3cc(F)c(-c4cnc([C@]5(O)C[C@@](C)(O)C5)nc4)nc3c12 [Example 26] | < 25 nM
CN1C(=O)c2cccc(OC(F)F)c2[C@H]2C[C@@H]1c1nn3cc(F)c(-c4cnc([C@]5(N)C[C@@](C)(O)C5)nc4)nc3c12 [Example 27] | < 25 nM
CN1C(=O)c2cccc(OC(F)F)c2[C@H]2C[C@@H]1c1nn3ccc(-c4cnc([C@]5(N)C[C@@](C)(O)C5)nc4)cc3c12 [Example 28] | < 25 nM
CN1C(=O)c2cccc(OC(F)F)c2[C@H]2C[C@@H]1c1nn3cc(F)c(-c4ccc(P(C)(C)=O)nc4)cc3c12 [Example 29] | < 25 nM
CN1C(=O)c2cccc(OC(F)F)c2[C@H]2C[C@@H]1c1nn3cnc(-c4ccc(P(C)(C)=O)nc4)cc3c12 [Example 30] | < 25 nM
[2H]C([2H])([2H])N1C(=O)c2cccc(OC(F)F)c2[C@H]2C[C@@H]1c1nn3ccc(-c4ccc(P(C)(C)=O)nc4)cc3c12 [Example 31] | < 25 nM
CN1C(=O)c2cccc(OC(F)F)c2[C@H]2C[C@@H]1c1nn3cnc(-c4cnc([C@]5(O)C[C@@](C)(O)C5)nc4)cc3c12 [Example 32] | < 25 nM
[2H]C([2H])([2H])N1C(=O)c2cccc(OC(F)F)c2[C@H]2C[C@@H]1c1nn3ccc(-c4cnc([C@]5(O)C[C@@](C)(O)C5)nc4)cc3c12 [Example 33] | < 25 nM
CN1C(=O)c2ccc(F)c(OC(F)F)c2[C@H]2C[C@@H]1c1nn3ccc(-c4ccc(P(C)(C)=O)nc4)cc3c12 [Example 34] | < 25 nM
CN1C(=O)c2cc(F)cc(OC(F)F)c2[C@H]2C[C@@H]1c1nn3ccc(-c4ccc(P(C)(C)=O)nc4)cc3c12 [Example 35] | < 25 nM
CN1C(=O)c2cccc(OC(F)F)c2[C@H]2C[C@@H]1c1nn3cc(F)c(-c4cnc([C@]5(N)C[C@@](C)(O)C5)nc4)cc3c12 [Example 36] | < 25 nM

Compound | IC50
CN1C(=O)c2cccc(OC3CC3)c2[C@H]2C[C@@H]1c1nn3ccc(-c4cnc([C@]5(O)C[C@@](C)(O)C5)nc4)cc3c12 [Example 37] | < 25 nM
C[C@]1(O)C[C@](O)(c2ncc(-c3ccn4nc5c(c4c3)[C@@H]3C[C@H]5NC(=O)c4cccc(OC(F)F)c43)cn2)C1 [Example 38] | < 25 nM
CN1C(=O)c2cccc(OC(F)F)c2[C@H]2C[C@@H]1c1nn3cc(F)c(-c4cnc(P(C)(C)=O)c(F)c4)cc3c12 [Example 39] | < 25 nM
CN1C(=O)c2cccc(OC(F)F)c2[C@H]2C[C@@H]1c1nn3ccc(-c4cnc([C@]5(N)C[C@@](C)(O)C5)c(F)c4)cc3c12 [Example 40] | < 25 nM
CN1C(=O)c2cccc(OC(F)F)c2[C@H]2C[C@@H]1c1nn3cc(F)c(-c4cnc(C5(N)CCC5)nc4)cc3c12 [Example 41] | < 25 nM
CN1C(=O)c2cccc(OC(F)F)c2[C@H]2C[C@@H]1c1nn3ccc(-c4cnc([C@]5(O)C[C@@](C)(O)C5)cn4)cc3c12 [Example 42] | < 25 nM
CN1C(=O)c2cccc(OC(F)F)c2[C@H]2C[C@@H]1c1nn3cc(F)c(-c4cnc([C@]5(O)C[C@@](C)(O)C5)cn4)cc3c12 [Example 43] | < 25 nM
CN1C(=O)c2cccc(OC(F)F)c2[C@H]2C[C@@H]1c1nn3cnc(-c4cnc([C@]5(O)C[C@@](C)(C#N)C5)nc4)cc3c12 [Example 45] | < 25 nM
CN1C(=O)c2cccc(OC(F)F)c2[C@H]2C[C@@H]1c1nn3cnc(-c4cnc([C@]5(N)C[C@@](C)(O)C5)nc4)cc3c12 [Example 46] | < 25 nM
CN1C(=O)c2cccc(OC(F)F)c2[C@H]2C[C@@H]1c1nn3cnc(-c4cnc([C@]5(N)C[C@@](C)(O)C5)c(F)c4)cc3c12 [Example 47] | < 25 nM
CN1C(=O)c2cccc(OC(F)F)c2[C@H]2C[C@@H]1c1nn3cnc(-c4cnc(C5(N)CCC5)nc4)cc3c12 [Example 48] | < 25 nM
CN1C(=O)c2cccc(OC(F)F)c2[C@H]2C[C@@H]1c1nn3ccc(-c4cnc(C5(N)COC5)nc4)cc3c12 [Example 49] | < 25 nM
CN1C(=O)c2cccc(OC(F)F)c2[C@H]2C[C@@H]1c1nn3cc(F)c(-c4cnc([C@]5(N)C[C@@](C)(O)C5)c(F)c4)nc3c12 [Example 50] | < 25 nM
CN1C(=O)c2cccc(OC(F)F)c2[C@H]2C[C@@H]1c1nn3cc(F)c(-c4cnc([C@]5(N)C[C@@](C)(C#N)C5)nc4)nc3c12 [Example 51] | < 25 nM
[2H]C([2H])([2H])N1C(=O)c2cccc(OC(F)F)c2[C@H]2C[C@@H]1c1nn3ccc(-c4cnc(C5(N)CCC5)nc4)nc3c12 [Example 52] | < 25 nM
CN1C(=O)c2cccc(C#N)c2[C@H]2C[C@@H]1c1nn3ccc(-c4cnc(C5(N)CCC5)nc4)cc3c12 [Example 54] | < 25 nM
[2H]C([2H])([2H])N1C(=O)c2cccc(OC(F)F)c2[C@H]2C[C@@H]1c1nn3ccc(-c4cnc([C@]5(N)C[C@@](C)(C#N)C5)nc4)cc3c12 [Example 55] | < 25 nM
[2H]C([2H])([2H])N1C(=O)c2cccc(OC(F)F)c2[C@H]2C[C@@H]1c1nn3ccc(-c4cnc([C@]5(N)C[C@@](C)(C#N)C5)nc4)nc3c12 [Example 56] | < 25 nM
[2H]C([2H])([2H])N1C(=O)c2cccc(OC(F)F)c2[C@H]2C[C@@H]1c1nn3cc(F)c(-c4cnc([C@]5(N)C[C@@](C)(O)C5)nc4)nc3c12 [Example 57] | < 25 nM
C[C@]1(C#N)C[C@](N)(c2ncc(-c3cc4c5c(nn4cc3F)[C@H]3C[C@@H]5c4c(OC(F)F)cccc4C(=O)N3)cc2F)C1 [Example 58] | < 25 nM

Same assay, conditions: HEK-Blue hTNFα reporter cells; read-out: TNFα reporter, Emax

Compound | Emax
CN1C(=O)c2cccc(OC(F)F)c2[C@H]2C[C@@H]1c1nn3ccc(-c4cnc([C@]5(O)C[C@@](C)(O)C5)nc4)cc3c12 [Example 24] | 91%
CN1C(=O)c2cccc(OC(F)F)c2[C@H]2C[C@@H]1c1nn3cnc(-c4cnc([C@]5(N)C[C@@](C)(O)C5)c(F)c4)cc3c12 [Example 47] | 94%

Same assay, conditions: HEK-Blue hTNFα reporter cells; read-out: TNFα reporter, IC50

Compound | IC50
CN1C(=O)c2cccc(OC(F)F)c2[C@H]2C[C@@H]1c1nn3ccc(-c4cnc([C@]5(O)C[C@@](C)(O)C5)nc4)cc3c12 [Example 24] | 2.3 nM
CN1C(=O)c2cccc(OC(F)F)c2[C@H]2C[C@@H]1c1nn3cnc(-c4cnc([C@]5(N)C[C@@](C)(O)C5)c(F)c4)cc3c12 [Example 47] | 3.6 nM
